From patent US20150368248A1, “2-SUBSTITUTED-6-BIARYLMETHYLAMINO-9-CYCLOPENTYL-9H-PURINE DERIVATIVES, USE THEREOF AS MEDICAMENTS, AND PHARMACEUTICAL COMPOSITIONS” (UNIVERZITA PALACKEHO V OLOMOUCI, priority 2013, published 2015)
pIC50: −log10 of the molar value.

Tests used:
[1] = system: p53-regulated transcription in Arn8 cells; experiment: p53-dependent transcriptional activity, β-galactosidase reporter; format: cell-based; settings: 24 h incubation
Summary of the method: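 Arn8 melanoma cells stably carrying the p53-responsive pRGCAfoslacZ reporter, exposed to compounds for 24 h. Cells permeabilised with 0.3% Triton X-100 for 15 min, then given 80 μM 4-methylumbelliferyl-β-D-galactopyranoside. β-Galactosidase product fluorescence read after 1 h at 355/460 nm.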

CDK1/cyclin B = molecular target: T1, CDK1/cyclin B (Homo sapiens, UniProt P06493); experiment: Kinase inhibition assay, recombinant kinase, [γ-33P]ATP; format: biochemical; settings: read-out: Kinase inhibition IC50, CDK1
T1 construct: made in house; host or cells: Sf9 insect cells (baculovirus)
T1 sequence (P06493 whole entry, species assumed): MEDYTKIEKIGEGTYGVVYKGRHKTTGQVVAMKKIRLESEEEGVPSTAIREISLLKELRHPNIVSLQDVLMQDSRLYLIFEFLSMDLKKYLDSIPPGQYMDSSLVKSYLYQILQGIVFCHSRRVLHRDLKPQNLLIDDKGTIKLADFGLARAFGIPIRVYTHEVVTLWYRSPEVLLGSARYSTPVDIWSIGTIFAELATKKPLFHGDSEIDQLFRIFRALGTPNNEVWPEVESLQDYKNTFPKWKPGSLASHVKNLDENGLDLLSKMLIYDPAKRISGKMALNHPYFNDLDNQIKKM
T1 sequence (P14635 whole entry partner, species assumed): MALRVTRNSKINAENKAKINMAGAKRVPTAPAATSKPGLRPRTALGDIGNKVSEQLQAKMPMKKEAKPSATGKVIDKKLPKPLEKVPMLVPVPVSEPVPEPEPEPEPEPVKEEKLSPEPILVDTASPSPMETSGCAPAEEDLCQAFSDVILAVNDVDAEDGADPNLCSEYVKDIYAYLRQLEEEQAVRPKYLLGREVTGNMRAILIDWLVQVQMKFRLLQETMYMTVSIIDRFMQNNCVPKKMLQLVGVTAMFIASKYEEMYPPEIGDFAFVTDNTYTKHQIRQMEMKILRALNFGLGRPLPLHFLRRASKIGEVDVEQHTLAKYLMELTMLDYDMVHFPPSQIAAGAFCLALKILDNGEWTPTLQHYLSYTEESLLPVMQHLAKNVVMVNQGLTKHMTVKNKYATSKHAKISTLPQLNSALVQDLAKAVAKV
Protocol: CDK2/Cyclin E kinase was produced in Sf9 insect cells via baculoviral infection and purified on a NiNTA column (Qiagen). CDK5/p35, CDK7Cyclin H/MAT1 and CDK9/Cyclin T1 was purchased from ProQinase GmbH. […] The reactions were stopped by adding 5 μL of 3% aq H3PO4. Aliquots were spotted onto P-81 phosphocellulose (Whatman), washed 3× with 0.5% aq H3PO4 and finally air-dried.
CDK1/cyclin B and CDK2/cyclin E kinases were produced in Sf9 insect cells via baculoviral infection, while CDK5/p35, CDK7/cyclin H/MAT1, and CDK9/cyclin T1 were purchased from ProQinase (Freiburg, Germany) and assayed as described previously (35). The kinase reactions were assayed with 1 mg/ml histone H1 (for CDK2 and CDK5) or (YSPTSPS)2KK peptide (for CDK7 and CDK9) in the presence of 15/0.15/1.5/1.5 […] ATP (for CDK2/CDK5/CDK7CDK9), […] [γ-^33P]ATP and of the test compound in a final volume of […]. The reaction buffer contained 60 mM HEPES-NaOH, pH 7.5, 3 mM MgCl2, 3 mM MnCl2, 3 mM Na-orthovanadate, 1.2 mM DTT, 2.5 mg/50 ml PEG20.000. The reactions were stopped by adding […] of 3% H3PO4. Aliquots were spotted onto P-81 phosphocellulose (Whatman, GE Healthcare Biosciences, Pittsburgh, USA), washed 3 times with 0.5% H3PO4 and finally air-dried. Kinase inhibition was quantified using a FLA-7000 digital image analyzer (Fujifilm, Tokyo, Japan).

HepG2 = experiment: MTT cytotoxicity assay (Example 30); format: cell-based; settings: Homo sapiens, HepG2, 72 h; MTT, three days after drug addition; read-out: Inhibitory concentration IC50, HepG2
Summary of the method: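 HepG2 cells in EMEM with 10% FBS, seeded at 10000 per well, dosed next day in triplicate at various concentrations. Three days later MTT added for 4 h; formazan dissolved in DMSO and absorbance read at 570 nm.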

[2] = system: caspase-3/7 activity in PLC/PRF/5 cell line; experiment: One-step cellular caspase-3/7 activity assay; format: cell-based, human; settings: 24 hours incubation, relative to 0 nM = 1.00
Summary of the method: (§1)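 Hep3B or PLC/PRF/5 cells, plated overnight, were exposed to compounds for 24 h. Lysis buffer containing 150 μM Ac-DEVD-AMC substrate was added, and plates were incubated at 37° C. Caspase-3/7 activity was read as AMC fluorescence (ex 346/em 442 nm) after 6 h.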

[3] = system: caspase-3/7 activity in Hep3B cell line; experiment: One-step cellular caspase-3/7 activity assay; format: cell-based, human; settings: 24 hours, 0 nM = 1.00
Summary of the method: as §1

Compound	Concentration of maximum activation [1]	pIC50 (CDK1/cyclin B)	melting point	pIC50 (HepG2)	Relative caspase-3/7 activity in PLC/PRF/5 cell line ([2]; compound concentration 40 nM)	Relative caspase-3/7 activity in PLC/PRF/5 cell line ([2]; compound concentration 80 nM)	Relative caspase-3/7 activity in PLC/PRF/5 cell line ([2]; compound concentration 160 nM)	Relative caspase-3/7 activity in PLC/PRF/5 cell line ([2]; compound concentration 320 nM)	Relative caspase-3/7 activity in PLC/PRF/5 cell line ([2]; compound concentration 640 nM)	Relative caspase-3/7 activity in PLC/PRF/5 cell line ([2]; compound concentration 1280 nM)	Relative caspase-3/7 activity in Hep3B cell line ([3]; 200 nM)	Relative caspase-3/7 activity in Hep3B cell line ([3]; 400 nM)	Relative caspase-3/7 activity in Hep3B cell line ([3]; 800 nM)	Relative caspase-3/7 activity in Hep3B cell line ([3]; 1600 nM)	Relative caspase-3/7 activity in Hep3B cell line ([3]; 100 nM)
Nc1ccccc1-c1ccc(CNc2nc(NC3CCC(N)CC3)nc3c2ncn3C2CCCC2)cc1 (stereo not shown) [BP32, N^2-(4-amino-cyclohexyl)-9-cyclopentyl-N^6-(2′-amino-biphenyl-4-ylmethyl)-9H-purine-2,6-diamine]	895 nM	6.82	168 to 170 °C	< 6.00	0.62	1.00	0.69	2.01	>5.00	>5.00	0.70	1.15	2.48	7.53	–
NC1CCC(Nc2nc(NCc3ccc(-c4ccsc4)nc3)c3ncn(C4CCCC4)c3n2)CC1 (stereo not shown) [BP35, N^2-(4-amino-cyclohexyl)-9-cyclopentyl-N^6-(6-thiophen-3-yl-pyridin-3-ylmethyl)-9H-purine-2,6-diamine]	230 nM	6.77	139 to 140 °C	6.56	1.10	2.37	2.97	>5.00	>5.00	>5.00	1.01	5.59	6.07	9.10	–
NC1CCC(Nc2nc(NCc3ccc(-c4ccoc4)nc3)c3ncn(C4CCCC4)c3n2)CC1 (stereo not shown) [BP36, N^2-(4-amino-cyclohexyl)-9-cyclopentyl-N^6-(6-furan-3-yl-pyridin-3-ylmethyl)-9H-purine-2,6-diamine]	125 nM	7.18	165 to 167 °C	6.88	2.34	>5.00	>5.00	>5.00	>5.00	>5.00	6.19	6.55	9.80	9.75	2.67
